Laboratory results from patent publication US11806314B2, “PDE5 inhibitor powder formulations and methods relating thereto” (Respira Therapeutics, Inc., priority 2013, dated 2023).
Where a name gives a salt, the structure may show the parent alone.

What was measured:
Type in all cases: physicochemical
[1] = Aerosol performance, Next Generation Impactor (NGI) with powder deaggregator and RS01 capsule piercing mechanism; details: pure drug (100% API)
From the text: There are several inertia sampling apparatuses that can be used to assess aerosol performance of dry powder formulations. (<601> Aerosols, Nasal Sprays, Metered-Dose Inhalers, and Dry Powder Inhalers Monograph, in USP 29-NF 24 The United States Pharmacopoeia and The National Formulary: The Official Compendia of Standards. 2006, The United States Pharmacopeial Convention, Inc.: Rockville, Md. p. 2617-2636 (“USP<601>”).) These apparatus classify aerosol particles on the basis of the particles' aerodynamic diameter. Each stage of the impactor includes a single or series of nozzles with specific cutoff size. Particles are entrained into the apparatus. Those having sufficient inertia will impact on that particular stage collection plate, while smaller particles with insufficient inertia will remain entrained in the airstream and pass to the next stage where the process is repeated. The aerodynamic size distribution of API can be assessed by collecting the deposited API mass and the ED %, RF %, FPF % and MMAD (μm) can be calculated from the API deposition pattern. The emitted dose fraction (ED (%); Eq. 4) is determined as the percentage powder mass emitted from the initial dosing chamber/capsule relative to the total dose in capsules (nominal dose) (TD). Emitted dose (ED) includes the sum of the API mass […] deposited on the device stages. Fine particle fraction (FPF (%); Eq. 5) is expressed as a percentage of fine particle dose (FPD) below a certain aerodynamic cutoff size to ED. Respirable fraction (RF (%); Eq. 6) is defined as the percentage of FPD to total dose (TD).
Formulation aerosol performance tests were carried out using a powder deaggregator modified from that described in U.S. Patent Publication Nos. 2013/0340754 and 2013/0340747 combined with an off-the-shelf RS01 dry powder inhaler capsule piercing mechanism (Plastiape, IT) feeding method. […] The experiments were conducted at an airflow rate that gave a system pressure drop of 2 kPa (about 40 L/min, 4 L inhalation volume duration: 5.5 sec) or 4 kPa (about 60 L/min, 4 L inhalation volume duration: 3.9 sec).
Packaging: The blends were packaged into size 3 HPMC capsules. Nominal dose amounts of 3 mg were prepared for each formulation; 10 mg nominal doses were also prepared for pure drug VarBase and Var(HCl)2·xH2O formulations.
Methods: Two inertial sampling systems were used to assess aerosol performance: (1) a Next Generation Impactor® (“NGI”) (Copley Scientific, Shoreview, Minn.), and (2) a Twin Stage Liquid Impinge (“TSLI”) (Copley Scientific, Shoreview, Minn.). Aerosol performance of the VarHCl·xH2O formulation was assessed using the TSLI device, while the other formulations were all assessed using the NGI device. The NGI experiments were carried out using methods in general agreement with the USP<601>, and the TSLI experiments were carried using methods in general agreement with the British Pharmacopoeia, 2007, Vol. IV, Appendix XIIF. A291 Aerodynamic assessment of fine particles, fine particle dose and particle size distribution. The NGI experiments were run at a controlled airflow rate that gave a pressure drop of either 2 or 4 kPa across the device. Specifically, at Q=61.4 L/min with a delay time of 3.9 sec; and at Q=43.4 L/min with a delay time of 5.5 sec. Before the aerosol testing, the NGI collection plates were coated with suitable coating. Mass median aerodynamic diameter (MMAD) of aerosol particles distribution was determined based on a log-probability distribution (API particle size versus API deposition percentage) obtained from the NGI data. The TSLI experiments were run at Q=60 L/min, 4 sec to achieve ΔP≈4 kPa, with a cutoff size of 6.4 μm.

[2] = Particle size analysis of micronized APIs by laser diffraction; details: micronized (jet-milled), dispersed in mineral spirit
Procedure: Var(HCl)2·xH2O, VarBase, and VarHCl·3H2O were purchased and then micronized using a commercial dry jet-miller. The jet milling was achieved using typical jet milling conditions and a single milling process. As shown in Example 5, micronization leads to partial dehydration of VarHCl·3H2O. As such, following micronization and absent rehydration, the compound is designated as VarHCl·xH2O.
The APIs were dispersed in mineral spirit, and particle size analysis was performed by laser diffraction using a Microtrac×100 Particle Size Analyzer. Particle size span was calculated as
[formula] where Dv0.1, Dv0.5 and Dv0.9 are 10%, 50% and 90% of the volume size distributed below the respective values.

[3] = Dynamic vapor sorption (DVS) moisture sorption and desorption; details: 20° C.; for moisture sorption and desorption behavior: micronized, 0-80% P/Po
Procedure: DVS Analysis: No DVS results of these APIs have been previously reported. Moisture sorption and desorption behavior was assessed using a DVS-Advantage 1 (Surface Measurement Systems, Allentown, Pa.). Experimental parameters: sample % P/Po in a range of 0-80; 5% P/Po increment, equilibrium criteria, both sorption and desorption. Experiments conducted at 20° C.

[4] = Intrinsic stability testing (acid, base, oxidative degradation in solution) by HPLC; details: acidic, basic and oxidative conditions per ICH Guidance
Procedure: Method: VarHCl·3H2O, HPLC grade water, 36.5% HCl, NaOH pellets, 6% H2O2 were all purchased, and 1N HCl and 1N NaOH were prepared in house. Intrinsic stability testing was performed according to International Conference on Harmonization (ICH) Guidance for Industry Q1A(R2) Stability Testing of New Drug Substances and Products (November 2003, Rev. 2). Briefly, the compound was tested for acid hydrolysis (1N HCl) and base hydrolysis (1N NaOH) at r.t. for 48 hr and at 60° C. for 4 hr. Oxidation assessment (6% H2O2) was performed at r.t. for 48 hr. The stability of VarHCl·3H2O in solution was assessed using HPLC analysis as described above in Example 1, Section A.

[5] = 3 mg dose, dihydrochloride hydrate

CCCc1nc(C)c2c(=O)[nH]c(-c3cc(S(=O)(=O)N4CCN(CC)CC4)ccc3OCC)nn12 [Var(HCl)2•xH2O (rehydrated), dihydrochloride hydrate]
ED(%) [1, 5]: 71.4% | FPF(ED)(%) [1, 5]: 63.6% | MMAD [1, 5]: 1.37 μm | RF(%) [1, 5]: 45.4%

CCCc1nc(C)c2c(=O)[nH]c(-c3cc(S(=O)(=O)N4CCN(CC)CC4)ccc3OCC)nn12 [VarBase, 2-[2-ethoxy-5-(4-ethylpiperazin-1-yl)sulfonylphenyl]-5-methyl-7-propyl-1H-imidazo[5,1-i][1,2,4]triazin-4-one]
DV50 [2]: 1.557 μm | Span [2]: 1.557 | moisture sorption and desorption behavior [3]: no hydration occurred | ED(%) ([1]; 3 mg dose): 81.8% | FPF(ED)(%) ([1]; 3 mg dose): 56.0% | MMAD ([1]; 3 mg dose): 1.32 μm | RF(%) ([1]; 3 mg dose): 45.8% | ED(%) ([1]; 10 mg dose): 64.2% | FPF(ED)(%) ([1]; 10 mg dose): 37.2% | MMAD ([1]; 10 mg dose): 1.51 μm | RF(%) ([1]; 10 mg dose): 23.9%

CCCc1nc(C)c2c(=O)[nH]c(-c3cc(S(=O)(=O)N4CCN(CC)CC4)ccc3OCC)nn12 [VarHCl, vardenafil hydrochloride]
moisture sorption and desorption behavior ([3]; hydrochloride): highly hygroscopic | relative humidity at which a first water molecule bound to form a monohydrate ([3]; sorption phase): 5%

CCCc1nc(C)c2c(=O)[nH]c(-c3cc(S(=O)(=O)N4CCN(CC)CC4)ccc3OCC)nn12 [VarHCl·3H2O, vardenafil hydrochloride trihydrate]
extent of degradation [4]: significant in basic and oxidative conditions | relative humidity below which water loss occurred ([3]; desorption phase): lower than 15% | humidity range in which the trihydrate form is stable / maintained ([3]; desorption phase, hydrochloride trihydrate): 10-80 % RH | relative humidity up to which integrity is maintained (not reaching deliquescence) ([3]; sorption phase): up to 80 % RH
